Consider 21 compounds from patent US12371428B2 (Exelixis, Inc., priority 2019, dated 2025).

Assay [1] concerns the target Human KDR (residues 790-1356) (Homo sapiens (Human), UniProt P35968). Description: Human KDR kinase assay, HTRF KinEase (Example B-2). In kind it is biochemical. Particulars: protocol of Example B-2. The procedure, abridged:
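Human KDR residues 790-1356 (0.1 ng/well) in buffer with 5 mM MgCl2, 1 mM MnCl2, 1 mM DTT, biotinylated peptide substrate, ATP at Km (4.0 μM), 3% DMSO, 10 compound concentrations; 40 min, room temperature. EDTA stop, streptavidin-XL665/Eu-TK antibody HTRF read 665/620 nm; 4-parameter IC50.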

Assay [2] deals with Human MER (residues 528-999) (Homo sapiens (Human), UniProt Q12866). Description: Human Mer kinase assay, HTRF KinEase (Example C-2). In kind it is biochemical. To be noted: protocol of Example C-2. The essentials:
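Recombinant MER 528-999 (1 ng/well) in buffer with 5 mM MgCl2 and 1 mM DTT was reacted with biotinylated peptide and ATP at Km (40 μM) for 60 min at room temperature. EDTA stop with SA-XL665 and Eu3+ TK antibody, then 665/620 nm HTRF read; IC50 from 4-parameter fit.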

Assay [3] addresses KDR (phospho-KDR, VEGF165-stimulated HUVEC cells) (Homo sapiens (Human), UniProt P35968). The assay is described as follows: KDR autophosphorylation ELISA in HUVEC cells (Example G). Particulars: cellular activity; KDR autophosphorylation ELISA in HUVEC cells. In kind it is cell-based. The essentials: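 HUVECs were serum-starved 24 h, given compound as an 8-point dilution series (0.3% DMSO final) for 1 h, then stimulated with 100 ng/mL VEGF165 for 5 min. Lysate phospho-KDR was quantified by sandwich ELISA against a phospho-KDR standard, and IC50s came from a 4-parameter logistic fit.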

Assay [4] deals with Mer (phospho-Mer, MERTK-transfected 293A cells) (Homo sapiens (Human), UniProt Q12866). Description: Mer autophosphorylation ELISA in transient transfected 293A cells (Example H). In kind it is cell-based. Particulars: cellular activity; Mer autophosphorylation ELISA in transient transfected 293A cells. The procedure, abridged:
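293A cells transiently transfected with human MERTK were treated 1 h in serum-free medium with an 8-point compound dilution (0.3% DMSO final). Lysates were assayed by phospho-Mer sandwich ELISA against a phospho-Mer standard; IC50 came from a 4-parameter logistic fit, normalised to DMSO (100%) and reference-inhibitor (0%) controls.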

Chain of Mer (phospho-Mer, MERTK-transfected 293A cells) (Q12866 21-999): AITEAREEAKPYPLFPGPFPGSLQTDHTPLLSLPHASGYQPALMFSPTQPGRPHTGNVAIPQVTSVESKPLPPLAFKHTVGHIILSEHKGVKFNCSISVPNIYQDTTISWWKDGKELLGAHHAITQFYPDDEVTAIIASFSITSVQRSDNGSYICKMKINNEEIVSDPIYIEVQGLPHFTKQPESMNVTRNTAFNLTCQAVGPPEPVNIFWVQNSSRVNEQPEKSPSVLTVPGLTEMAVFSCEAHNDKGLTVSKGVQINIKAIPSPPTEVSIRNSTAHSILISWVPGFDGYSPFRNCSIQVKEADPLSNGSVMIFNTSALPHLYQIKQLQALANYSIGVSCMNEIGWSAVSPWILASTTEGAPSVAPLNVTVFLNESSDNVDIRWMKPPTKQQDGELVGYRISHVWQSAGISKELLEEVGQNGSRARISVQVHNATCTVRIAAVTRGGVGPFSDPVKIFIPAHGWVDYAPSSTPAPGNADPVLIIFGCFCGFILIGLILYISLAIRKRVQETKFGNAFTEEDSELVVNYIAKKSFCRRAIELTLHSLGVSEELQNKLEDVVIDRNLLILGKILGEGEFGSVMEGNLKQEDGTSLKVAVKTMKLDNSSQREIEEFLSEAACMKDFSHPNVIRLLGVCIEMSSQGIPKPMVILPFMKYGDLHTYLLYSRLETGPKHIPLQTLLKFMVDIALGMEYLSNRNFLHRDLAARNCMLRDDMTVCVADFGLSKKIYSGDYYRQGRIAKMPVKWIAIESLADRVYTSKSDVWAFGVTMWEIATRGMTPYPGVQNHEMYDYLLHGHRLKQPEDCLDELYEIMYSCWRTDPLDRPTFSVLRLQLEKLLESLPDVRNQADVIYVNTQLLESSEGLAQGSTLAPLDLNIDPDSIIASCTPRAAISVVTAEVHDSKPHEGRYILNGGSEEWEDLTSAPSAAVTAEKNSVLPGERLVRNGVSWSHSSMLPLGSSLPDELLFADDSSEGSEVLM
Chain of Human MER (residues 528-999) (Q12866 528-999): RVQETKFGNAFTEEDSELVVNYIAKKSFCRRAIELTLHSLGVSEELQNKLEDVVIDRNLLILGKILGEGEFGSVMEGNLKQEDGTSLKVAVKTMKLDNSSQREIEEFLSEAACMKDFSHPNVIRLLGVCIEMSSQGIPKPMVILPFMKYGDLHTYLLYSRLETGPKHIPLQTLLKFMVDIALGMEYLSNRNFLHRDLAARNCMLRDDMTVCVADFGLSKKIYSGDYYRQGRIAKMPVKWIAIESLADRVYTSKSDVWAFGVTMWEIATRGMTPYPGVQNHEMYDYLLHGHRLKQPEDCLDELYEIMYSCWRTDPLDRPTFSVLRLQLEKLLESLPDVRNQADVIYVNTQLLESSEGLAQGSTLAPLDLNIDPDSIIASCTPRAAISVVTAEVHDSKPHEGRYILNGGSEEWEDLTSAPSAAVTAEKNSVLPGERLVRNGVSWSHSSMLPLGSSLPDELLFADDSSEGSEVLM
Chain of Human KDR (residues 790-1356) (P35968 790-1356): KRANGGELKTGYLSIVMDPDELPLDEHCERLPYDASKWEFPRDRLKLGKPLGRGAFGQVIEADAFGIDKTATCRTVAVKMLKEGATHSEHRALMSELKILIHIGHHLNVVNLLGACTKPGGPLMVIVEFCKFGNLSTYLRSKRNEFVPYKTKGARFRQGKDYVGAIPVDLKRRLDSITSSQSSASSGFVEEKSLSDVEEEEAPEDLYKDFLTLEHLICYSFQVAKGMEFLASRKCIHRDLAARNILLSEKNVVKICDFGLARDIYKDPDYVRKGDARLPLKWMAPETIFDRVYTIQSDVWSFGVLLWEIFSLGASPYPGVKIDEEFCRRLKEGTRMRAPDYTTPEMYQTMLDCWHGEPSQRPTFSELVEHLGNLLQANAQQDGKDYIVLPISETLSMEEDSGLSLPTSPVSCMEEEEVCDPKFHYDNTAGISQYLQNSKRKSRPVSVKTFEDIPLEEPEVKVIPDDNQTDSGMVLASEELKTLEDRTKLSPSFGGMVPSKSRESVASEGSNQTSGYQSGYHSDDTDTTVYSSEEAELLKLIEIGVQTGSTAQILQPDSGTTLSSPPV
Chain of KDR (phospho-KDR, VEGF165-stimulated HUVEC cells) (P35968 20-1356): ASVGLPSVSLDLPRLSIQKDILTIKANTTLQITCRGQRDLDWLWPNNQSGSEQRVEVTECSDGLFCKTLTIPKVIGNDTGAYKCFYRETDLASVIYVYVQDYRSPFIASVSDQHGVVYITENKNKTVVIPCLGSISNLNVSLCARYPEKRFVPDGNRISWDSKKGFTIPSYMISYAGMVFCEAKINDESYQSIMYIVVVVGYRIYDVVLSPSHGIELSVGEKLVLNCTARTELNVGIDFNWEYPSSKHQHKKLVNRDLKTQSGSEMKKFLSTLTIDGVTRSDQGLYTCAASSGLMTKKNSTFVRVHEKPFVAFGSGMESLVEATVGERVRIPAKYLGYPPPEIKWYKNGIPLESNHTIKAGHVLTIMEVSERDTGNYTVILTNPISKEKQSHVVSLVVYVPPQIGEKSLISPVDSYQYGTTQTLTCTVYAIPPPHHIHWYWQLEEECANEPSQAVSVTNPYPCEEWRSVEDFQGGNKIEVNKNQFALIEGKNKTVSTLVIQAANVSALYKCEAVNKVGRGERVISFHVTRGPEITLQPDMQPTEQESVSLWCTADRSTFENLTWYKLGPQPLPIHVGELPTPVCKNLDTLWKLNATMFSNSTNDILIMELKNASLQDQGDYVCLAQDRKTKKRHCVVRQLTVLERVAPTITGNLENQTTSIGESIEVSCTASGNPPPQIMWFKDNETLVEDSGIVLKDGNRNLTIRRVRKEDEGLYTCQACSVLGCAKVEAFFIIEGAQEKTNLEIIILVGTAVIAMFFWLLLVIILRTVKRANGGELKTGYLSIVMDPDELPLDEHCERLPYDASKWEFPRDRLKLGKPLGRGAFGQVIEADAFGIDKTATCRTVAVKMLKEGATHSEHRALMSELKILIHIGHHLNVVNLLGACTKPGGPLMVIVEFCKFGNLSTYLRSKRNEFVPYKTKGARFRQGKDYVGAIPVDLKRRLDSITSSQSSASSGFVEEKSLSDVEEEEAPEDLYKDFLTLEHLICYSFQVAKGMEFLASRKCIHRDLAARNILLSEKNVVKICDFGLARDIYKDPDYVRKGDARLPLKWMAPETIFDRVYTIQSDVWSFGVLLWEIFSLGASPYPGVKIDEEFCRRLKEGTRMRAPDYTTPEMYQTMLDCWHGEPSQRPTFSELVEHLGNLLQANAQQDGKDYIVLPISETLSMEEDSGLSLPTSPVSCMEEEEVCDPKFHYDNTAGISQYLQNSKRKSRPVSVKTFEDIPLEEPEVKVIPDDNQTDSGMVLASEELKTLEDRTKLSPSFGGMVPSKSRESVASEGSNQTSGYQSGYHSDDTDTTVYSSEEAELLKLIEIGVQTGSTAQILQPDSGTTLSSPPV

With `COc1cc2nccc(Oc3ccc(NC(=O)c4c(C)n(C)cc(-c5ccc(F)cc5C)c4=O)cc3F)c2nc1OC` [Compound 481, N-[4-[(6,7-dimethoxy-1,5-naphthyridin-4-yl)oxy]-3-fluorophenyl]-5-(4-fluoro-2-methylphenyl)-1,2-dimethyl-4-oxopyridine-3-carboxamide], the IC50 was 100 to 300 nM in assay [1], less than 100 nM in assay [2], less than 100 nM in assay [3] and less than 100 nM in assay [4].
Regarding `COc1nc2c(Oc3ccc(NC(=O)c4c(C)nc(C)c(-c5ccc(F)cc5)c4O)cc3F)ccnc2cc1C` [Compound 459, N-[3-fluoro-4-[(6-methoxy-7-methyl-1,5-naphthyridin-4-yl)oxy]phenyl]-5-(4-fluorophenyl)-4-hydroxy-2,6-dimethylpyridine-3-carboxamide], the IC50 is 100 to 300 nM in assay [1], less than 100 nM in assay [2], less than 100 nM in assay [3] and less than 100 nM in assay [4].
Consider `COc1cc2nccc(Oc3ccc(NC(=O)c4cnc(C)c(-c5ccc(F)cc5)c4O)cc3F)c2nc1C` [Compound 541, N-[3-fluoro-4-[(7-methoxy-6-methyl-1,5-naphthyridin-4-yl)oxy]phenyl]-5-(4-fluorophenyl)-4-hydroxy-6-methylpyridine-3-carboxamide], for which the IC50 in assay [1], in assay [2], in assay [3] and in assay [4] was less than 100 nM in each case.
On to `COc1cc2nccc(Oc3ccc(NC(=O)c4cn(C5CCCC5)c(C)c(-c5ccc(F)c(Cl)c5)c4=O)cc3F)c2nc1OC` [Compound 27, 5-(3-Chloro-4-fluorophenyl)-1-cyclopentyl-N-[4-[(6,7-dimethoxy-1,5-naphthyridin-4-yl)oxy]-3-fluorophenyl]-6-methyl-4-oxopyridine-3-carboxamide], for which the IC50 in assay [3] and in assay [4] was less than 100 nM each time.
Regarding `COCc1nc(C)c(-c2ccc(F)cc2)c(O)c1C(=O)Nc1ccc(Oc2ccnc3ccc(OC)cc23)c(F)c1` [Compound 525, N-[3-fluoro-4-(6-methoxyquinolin-4-yl)oxyphenyl]-5-(4-fluorophenyl)-4-hydroxy-2-(methoxymethyl)-6-methylpyridine-3-carboxamide], the IC50 in assay [1] was greater than 300 nM; in assay [2], less than 100 nM; in assay [3] it was less than 100 nM; in assay [4], less than 100 nM.
In the case of `COCc1nc(C)c(-c2ccc(F)cc2)c(O)c1C(=O)Nc1ccc(Oc2ccnc3ccc(OC)nc23)cc1` [Compound 510, 5-(4-fluorophenyl)-4-hydroxy-2-(methoxymethyl)-N-[4-[(6-methoxy-1,5-naphthyridin-4-yl)oxy]phenyl]-6-methylpyridine-3-carboxamide], the IC50 was 100 to 300 nM in assay [1], less than 100 nM in assay [2], less than 100 nM in assay [3] and less than 100 nM in assay [4].
On to `COc1cc2nccc(Oc3ccc(NC(=O)c4cn(C5CCCC5)c(C)c(-c5ccc(F)cc5)c4=O)cc3F)c2nc1OC` [Compound 26], for which the IC50 in assay [3] and in assay [4] was less than 100 nM each time.
`COc1cc2nccc(Oc3ccc(NC(=O)c4cn(C(C)C)c(C)c(-c5ccc(F)cc5)c4=O)cc3F)c2cc1OC` [Compound 22, N-[4-(6,7-Dimethoxyquinolin-4-yl)oxy-3-fluorophenyl]-5-(4-fluorophenyl)-6-methyl-4-oxo-1-propan-2-ylpyridine-3-carboxamide]: the IC50 was 100 to 300 nM in assay [3] and less than 100 nM in assay [4].
On the same counts, the results for `COc1cc2nccc(Oc3ccc(NC(=O)c4cn(C(C)C)cc(-c5ccc(F)cc5)c4=O)cc3F)c2nc1OC` [Compound 44, N-[4-[(6,7-Dimethoxy-1,5-naphthyridin-4-yl)oxy]-3-fluorophenyl]-5-(4-fluorophenyl)-4-oxo-1-propan-2-ylpyridine-3-carboxamide] are 100 to 300 nM and less than 100 nM.
On the same counts, the results for `COc1cc2nccc(Oc3ccc(NC(=O)c4c[nH]c(=S)n(-c5ccc(F)cc5)c4=O)cc3F)c2nc1OC` [Compound 104, N-[4-[(6,7-Dimethoxy-1,5-naphthyridin-4-yl)oxy]-3-fluorophenyl]-3-(4-fluorophenyl)-4-oxo-2-sulfanylidene-1H-pyrimidine-5-carboxamide] are less than 100 nM and less than 100 nM.
On the same counts, the results for `CNc1ncc(C(=O)Nc2ccc(Oc3ccnc4cc(OC)c(OC)nc34)c(F)c2)c(=O)n1-c1ccc(F)cc1` [Compound 99, N-[4-[(6,7-Dimethoxy-1,5-naphthyridin-4-yl)oxy]-3-fluorophenyl]-1-(4-fluorophenyl)-2-(methylamino)-6-oxopyrimidine-5-carboxamide] are less than 100 nM and less than 100 nM.
As for `COc1cc2nccc(Oc3ccc(NC(=O)c4cncc(-c5ccc(F)cc5)c4O)cc3F)c2nc1OC` [Compound 42, N-[4-[(6,7-Dimethoxy-1,5-naphthyridin-4-yl)oxy]-3-fluorophenyl]-5-(4-fluorophenyl)-4-hydroxypyridine-3-carboxamide], the IC50 in assay [3] and in assay [4] was less than 100 nM in each case.
Consider `COc1cc2nccc(Oc3ccc(NC(=O)c4cn(C(C)C)c(C)c(-c5ccc(F)cc5)c4=O)cc3F)c2nc1OC` [Compound 21, N-[4-[(6,7-Dimethoxy-1,5-naphthyridin-4-yl)oxy]-3-fluorophenyl]-5-(4-fluorophenyl)-6-methyl-4-oxo-1-propan-2-ylpyridine-3-carboxamide], for which the half-inhibitory concentration (IC50) in assay [3] and in assay [4] was less than 100 nM each time.
As for `COc1cc2nccc(Oc3ccc(NC(=O)c4cn(C5CC5)cc(-c5ccc(F)cc5)c4=O)cc3F)c2nc1OC` [Compound 41, 1-Cyclopropyl-N-[4-[(6,7-dimethoxy-1,5-naphthyridin-4-yl)oxy]-3-fluorophenyl]-5-(4-fluorophenyl)-4-oxopyridine-3-carboxamide], the IC50 in assay [3] is 100 to 300 nM; in assay [4], less than 100 nM.
As for `COc1cc2nccc(Oc3ccc(NC(=O)c4cn(C5CCCC5)cc(-c5ccc(F)cc5)c4=O)cc3F)c2nc1OC` [Compound 46, 1-Cyclopentyl-N-[4-[(6,7-dimethoxy-1,5-naphthyridin-4-yl)oxy]-3-fluorophenyl]-5-(4-fluorophenyl)-4-oxopyridine-3-carboxamide], the IC50 is 100 to 300 nM in assay [3] and less than 100 nM in assay [4].
On the same counts, the results for `COc1cc2nccc(Oc3ccc(NC(=O)c4cn(C5COC5)cc(-c5ccc(F)cc5)c4=O)cc3F)c2nc1OC` [Compound 47, N-[4-[(6,7-Dimethoxy-1,5-naphthyridin-4-yl)oxy]-3-fluorophenyl]-5-(4-fluorophenyl)-1-(oxetan-3-yl)-4-oxopyridine-3-carboxamide] are greater than 300 nM and less than 100 nM.
On the same counts, the results for `COc1cc2nccc(Oc3ccc(NC(=O)c4cn(C)cc(-c5ccc(F)cc5)c4=O)cc3F)c2nc1OC` [Compound 45, N-[4-[(6,7-Dimethoxy-1,5-naphthyridin-4-yl)oxy]-3-fluorophenyl]-5-(4-fluorophenyl)-1-methyl-4-oxopyridine-3-carboxamide] are less than 100 nM and less than 100 nM.
On the same counts, the results for `COc1cc2nccc(Oc3ccc(NC(=O)c4cn(C(C)C)c(C)c(-c5ccc(F)c(Cl)c5)c4=O)cc3F)c2nc1OC` [Compound 24, 5-(3-Chloro-4-fluorophenyl)-N-[4-[(6,7-dimethoxy-1,5-naphthyridin-4-yl)oxy]-3-fluorophenyl]-6-methyl-4-oxo-1-propan-2-ylpyridine-3-carboxamide] are 100 to 300 nM and less than 100 nM.
Turning to `COc1cc2nccc(Oc3ccc(NC(=O)c4cn(C(C)C)cc(-c5ccc(F)cc5)c4=O)cc3F)c2cc1OC` [Compound 43, N-[4-(6,7-Dimethoxyquinolin-4-yl)oxy-3-fluorophenyl]-5-(4-fluorophenyl)-4-oxo-1-propan-2-ylpyridine-3-carboxamide], the IC50 in assay [3] and in assay [4] was less than 100 nM in each case.
Consider `COc1cc2nccc(Oc3ccc(NC(=O)c4cn(C(C)C)c(C)c(-c5ccc(Cl)c(Cl)c5)c4=O)cc3F)c2cc1OC` [Compound 23, 5-(3,4-Dichlorophenyl)-N-[4-(6,7-dimethoxyquinolin-4-yl)oxy-3-fluorophenyl]-6-methyl-4-oxo-1-propan-2-ylpyridine-3-carboxamide], for which the values for the IC50 in assay [3] and in assay [4] were greater than 300 nM and less than 100 nM, respectively.
As for `COc1cc2nccc(Oc3ccc(NC(=O)c4cn(C(C)C)c(C)c(-c5ccc(Cl)c(Cl)c5)c4=O)cc3F)c2nc1OC` [Compound 25, 5-(3,4-Dichlorophenyl)-N-[4-[(6,7-dimethoxy-1,5-naphthyridin-4-yl)oxy]-3-fluorophenyl]-6-methyl-4-oxo-1-propan-2-ylpyridine-3-carboxamide], the IC50 is 100 to 300 nM in assay [3] and less than 100 nM in assay [4].
